The values that follow come from patent US7276352B2, “Induction of β cell differentiation in human cells by stimulation of the GLP-1 receptor” (The Regents of the University of California, priority 2000, dated 2007).

The test system of assay [1] is βlox5 cells. Briefly: RT-PCR analysis of pancreatic hormone gene expression in βlox5 cells. As to conditions: for hormone expression in βlox5 cells: βlox5 cells expressing PDX-1, data not shown. The format is cell-based, human. From the text:
FIG. 2: RT-PCR analysis of pancreatic hormone gene expression in βlox5. The conditions tested were βlox5 cells grown in monolayer culture, βlox5 cells infected with a retroviral vector expressing PDX-1, βlox5 cells grown as three-dimensional aggregates, and βlox5 cells treated with exendin-4. FIG. 2(A) insulin; FIG. 2(B) quantitative RT-PCR analysis of insulin gene expression; FIG. 2(C) other pancreatic hormones. Aggregation of cells into three-dimensional clusters and the retroviral vector expressing PDX-1 have been described previously (Itkin-Ansari et al., submitted). Exendin-4 (Sigma) was used at a concentration of 10 nM. RT-PCR for insulin, somatostatin, glucagon, and IAPP have been described previously (Itkin-Ansari et al., submitted). Quantitative RT-PCR was done by interpolation from a standard curve constructed using a plasmid containing the human insulin cDNA.
PDX-1 also acted synergistically with cell-cell contact to further increase the level of […] expression about 1,000-fold above the cells not expressing PDX-1, to a level similar to that found in normal human islets. To determine whether βlox5 could be induced to express pancreatic hormones, recombinant PDX-1 was expressed in βlox5 using a retroviral vector. […] Therefore, other factors were examined for their ability to induce hormone expression in βlox5 cells expressing PDX-1. Activin and betacellulin have been reported to be able to induce endocrine differentiation in cell lines and primary cells (Mashima et al., Diabetes 48:304-9 (1999), Huotari et al., Endocrinology 139, 1494-9 (1998), Mashima et al., J Clin Invest 97:1647-54 (1996), Yamaoka et al, J Clin Invest 102:294-301 (1998)). However, they had no effect on hormone expression in βlox5 cells (data not shown).
GLP-1, a small peptide cleaved from the proglucagon molecule, is an insulin secretogogue Drucker et al., Diabetes 47:159-69 (1998)).
By itself, exendin-4 had no effect on hormone expression in βlox5 (FIG. 2A, lane 8). […] The nature of the interaction between exendin-4, cell-cell contact, and PDX-1 is evident from the fact that no hormone mRNA was detectable with any one or two of the three inducing factors (FIG. 2A). […] Islet amyloid polypeptide (IAPP) mRNA, a hormone that is co-secreted with insulin, was also expressed in induced βlox5 cells (FIG. 2C, lane 2). However, the other major pancreatic hormones, glucagon, somatostatin, and pancreatic polypeptide (PP), were not induced (FIG. 2C).

The subject of assay [2] is βlox5 cells. Kind of assay: Analysis of transcription factors expressed in βlox5 cells (RT-PCR, Western blot). The format is cell-based, human. As to the method:
FIG. 3: Analysis of transcription factors expressed in βlox5 cells. FIG. 3(A) electrophoretic mobility shift assay (EMSA) of PDX-1. EM5A for PDX-1 was performed using a probe derived from the human insulin promoter A5 element. FIGS. 3(B&C) RT-PCR analysis of BETA2 and Pax6. FIG. 3(D) Western blot analysis of CREB. FIG. 3(E) EMSA of RIPE3b.
The expression of transcription factors important in β-cell development was examined to determine whether they had been induced by PDX-1, cell-cell contact, and exendin-4. […] GLP-1 has been reported to increase cAMP levels and this has been thought to be a major mechanism by which GLP-1 acts as an insulin secretogogue (Serre et al., Endocrinology 139:4448-54 (1998)). […] RIPE3b, a factor that plays a critical role in insulin gene expression but that has not yet been cloned, is expressed in βlox5 irrespective of PDX-1, cell-cell contact, or exendin-4 (FIG. 3E).

Setting [3] is: induced βlox5 cells (PDX-1, cell-cell contact, exendin-4 10 nM).

For the molecule Activin, in the assay on βlox5 cells [1], the “hormone expression in βlox5 cells” value is given as “no effect”.
Take exendin-4: the BETA2 expression result in the assay with βlox5 cells [2] (PDX-1, cell-cell contact and exendin-4, RT-PCR) was “induced only by the combination of all three inducing factors”. Moreover, the CREB expression entry in the assay on βlox5 cells [2] (exendin-4 alone, independently of cell-cell contact and PDX-1, Western blot) is on record as “induced”. Further, the “hormone expression in βlox5” value in the assay on βlox5 cells [1] (exendin-4 by itself, 10 nM, four days, no PDX-1, no aggregation) was “no effect”. For the same molecule, in the assay with βlox5 cells [1] (setting [3]), the “Islet amyloid polypeptide (IAPP) mRNA” value is recorded as “expressed”; the “glucagon, somatostatin and pancreatic polypeptide (PP) expression” value is recorded as “not induced”. In addition, the “insulin mRNA” value in the assay with βlox5 cells [1] (βlox5 cells expressing PDX-1, suspension culture as three-dimensional aggregates, 10 nM exendin-4 for four days) is recorded as “substantial amount of insulin mRNA was detectable”.

B1: betacellulin (protein, UniProt P35070 32-111, looked up)
Betacellulin: DGNSTRSPETNGLLCGDPEENCAATTTQSKRKGHFSRCPKQYKHYCIKGRCRFVVAEQTPSCVCDEGYIGARCERVDLFY
notes: factor reported to be able to induce endocrine differentiation in cell lines and primary cells
With B1, the “hormone expression in βlox5 cells” value in the assay on βlox5 cells [1] is on record as “no effect”.
